Source: ChEMBL document CHEMBL1150738, “Plant antitumor agents, 27. Isolation, structure, and structure activity relationships of alkaloids from Fagara macrophylla” (1987)
Activity calls are given as the source filed them. The rule behind the calls is not given here.

Key:
P388 = test: In vivo antitumor activity against mouse P388 cells at 30 to 50 mg/kg, ip relative to control; type: functional; settings: for T/C: dose mg/kg 30-50, route intraperitoneal
B16 = test: Cytotoxicity against mouse B16 cells; type: functional, cell-based

| Structure (SMILES) | Activity (P388) | T/C (P388) [%] | Activity (B16) |
| --- | --- | --- | --- |
| COc1cc2cnc3c4cc5c(cc4ccc3c2cc1OC)OCO5 | inactive |  |  |
| COc1cc2c(cc1OC)C(OC)N(C)c1c-2ccc2cc3c(cc12)OCO3 (stereo unspecified) |  | 240 |  |
| COc1cc2c[n+](C)c3c4cc5c(cc4ccc3c2cc1OC)OCO5.[Cl-] [NITIDINE CHLORIDE] |  | 240 | inactive |
| COc1cc2c(cc1OC)-c1ccc3cc4c(cc3c1N(C)C2)OCO4 | inactive |  |  |
| COc1cc2c(=O)n(C)c3c4cc5c(cc4ccc3c2cc1OC)OCO5 | inactive |  |  |
